Where “and” joins values, the source holds several entries; their conditions need not be identical. Equal values may be shown once. Where a name gives a salt, the structure may show the parent alone.
What was measured:
[1] = test system: NP2-X4+ DRG neurons; test: GCaMP6s calcium imaging of cultured NP2-X4+ DRG neurons; format: cell-based, mouse; conditions: 10 μM phospho-drugs; 1 mM CQ
Source text: (§1) Fig. 2. Phosphate monoester prodrugs induce itch in NP2-MRGPRX4+ mice through activating NP2 primary sensory neurons. (A) Mating strategy to generate NP2-X4+ mice. (B) In situ hybridization showing MRGPRX4 transcripts (magenta) in NP2-X4+ DRG as indicated by arrowheads (left) but not in littermate control NP2-WT (right). NP2 subpopulation accounts for 5% of total DRG neurons. DAPI, blue. Scale bar, 50 μm. […]. Data are expressed as mean ± SEM. *p< 0.05, **p< 0.01 and ***p< 0.001 by two-tailed unpaired Student’s t-test. ns = no statistical significance observed. (D and E) Traces of average (top, depicted as mean ± 95% confidence interval) and individual (bottom, reflected by the heatmap) calcium activity, measured by fluorescence intensity normalized to the baseline intensity (FT/F0) over time of NP2-X4+ (D) and NP2-WT (E) DRG neurons labelled with GCaMP6s (n = 110–150 neurons pooled from 3–7 independent culture vessels from 2–4 mice in each condition). 10 μM phospho-drugs and 1 mM CQ were added as indicated by the arrowheads. Neurons with FT/F0 > 1.5 after compound application were considered a positive responder. NP2-X4+: NP2-MRGPRX4+; DRG, dorsal root ganglia; CQ: chloroquine.
The procedures were performed following previously established protocols ([15]). Murine DRGs (from both male and female) were harvested from all spinal segments and digested in dispase (5 mg/ml) / type I collagenase (1 mg/ml) enzyme mix at 37 °C for an hour. Enzyme mix was replaced with complete DH10 media (90% DMEM/F12, 10% FBS, penicillin (100 units/ml), and streptomycin (100 μg/ml)) and gently triturated with 1 ml pipette tip until the media turned cloudy without visible tissue chunks. Dissociated tissues were filtered through a 70 μm filter and spun down 1250 rpm for 5 min at RT. Supernatant was removed and the cell pellet was resuspended in complete DH10 media. Cell suspension was then added on top of poly-D-lysine- and laminin-coated coverslips and sat for 1–2 h at 37°C. Complete DH10 media supplemented with NGF (50 ng/ml) was then added into the vessel. Neurons were allowed to recover overnight at 37°C for the next-day calcium imaging experiment.
Calcium imaging data was collected with a Nikon Eclipse TE 200 microscope. Time series GCaMP6 fluorescence intensity was acquired through the FITC/GFP channel. Before the imaging, cultured neurons were washed and equilibrated in CIB for 30 min at 37°C. In each trial, compounds (as indicated in the results) were added into the imaging chamber after a 30 s baseline GCaMP6 activity was collected. […] Neurons with GCaMP6 signal rose above 50% of the baseline intensity after compound application were counted as positive responders and the percentage of responding neurons was calculated. […]

[2] = test system: NP2-X4+ mice (MRGPRX4 in Mrgpra3+ NP2 sensory neurons); test: Itch behavioral study (scratching bouts after subcutaneous nape injection) in NP2-X4+ mice; format: in vivo, mouse; conditions: for Scratching bouts of individual animals: NP2-X4+, 30 min after injection of 50 μl 10 mM into the nape, each cell one mouse
[3] = test system: WT mice; test: Itch behavioral study in WT mice across concentrations (fig. S4)
Protocol: Experimenters and subjects scoring the recorded videos were both blind to the mouse genotype and tested compounds. Behavioral tests comparing NP2-WT and NP2-X4+ scratching behavior were 6–12weeks old littermates including both genders. In brief, on the day preceding the experiment, animals were acclimated to the test chamber for at least 30 min and the experimenters performed mock injections 1–2 times in between. On the day of experiments, animals were habituated in test chambers for 10 min before receiving subcutaneous injection of 50ul compounds. Videos were recorded for 30 min after the injection. A bout of scratching was defined as a sustained scratching movement initiated by hindpaws toward the injection site (until the pause of the movement / withdrawal of the hindpaw). Scratching bouts were quantified within the 30 min record sessions.

[4] = test system: NP2-WT mice; test: Itch behavioral study (scratching bouts after subcutaneous nape injection) in littermate control NP2-WT mice; format: in vivo; conditions: 30 min after injection of 50 μl 10 mM into the nape, each cell one mouse
Source text: Fig. 2. Phosphate monoester prodrugs induce itch in NP2-MRGPRX4+ mice through activating NP2 primary sensory neurons. (A) Mating strategy to generate NP2-X4+ mice. (B) In situ hybridization showing MRGPRX4 transcripts (magenta) in NP2-X4+ DRG as indicated by arrowheads (left) but not in littermate control NP2-WT (right). NP2 subpopulation accounts for 5% of total DRG neurons. DAPI, blue. Scale bar, 50 μm. […] . Data are expressed as mean ± SEM. *p< 0.05, **p< 0.01 and ***p< 0.001 by two-tailed unpaired Student’s t-test. ns = no statistical significance observed. (D and E) Traces of average (top, depicted as mean ± 95% confidence interval) and individual (bottom, reflected by the heatmap) calcium activity, measured by fluorescence intensity normalized to the baseline intensity (FT/F0) over time of NP2-X4+ (D) and NP2-WT (E) DRG neurons labelled with GCaMP6s (n = 110–150 neurons pooled from 3–7 independent culture vessels from 2–4 mice in each condition). 10 μM phospho-drugs and 1 mM CQ were added as indicated by the arrowheads. Neurons with FT/F0 > 1.5 after compound application were considered a positive responder. NP2-X4+: NP2-MRGPRX4+; DRG, dorsal root ganglia; CQ: chloroquine.
. All the animals used were heterozygous unless otherwise specified. NP2-X4+ and NP2-WT littermates were generated by crossing Mrgpra3-Cre to Rosa26-lsl-MRGPRX4 as detailed previously ([15]). NP2-X4+ mice were further crossed to homozygous Rosa26-lsl-GCaMP6s to obtain NP2-WT/GCaMP6s and NP2-X4+/GCaMP6s animals. A detailed mating strategy is illustrated in fig. S5. Pirt-Cre-GCaMP6s animals were acquired by crossing Pirt-Cre to homozygous Rosa26-lsl-GCaMP6s. Pirt-Cre animals were generated through homologous recombination as indicated previously ([37]). Rosa26-lsl-GCaMP6s mouse line was provided by Dr. Dwight Bergles’ lab at the Johns Hopkins School of Medicine.

[5] = test system: HTLA cells; test: PRESTO-Tango β-arrestin recruitment assay, parental HTLA cells without MRGPRX4 (control, fig. S1); format: cell-based
Source text: Supplement NIHMS2038790-supplement-table.xlsx, sheet "fig. S1" | column: Concentration (M)

[6] = vs dexamethasone; cited from earlier work
[7] = target: T1, MRGPRX4 (S83) (Homo sapiens, UniProt Q96LA9, L83S); test: EC50 determination, intracellular calcium mobilization in MRGPRX4 stably expressed HEK293 cells (FLIPR Calcium 5, Flexstation-3); format: cell-based; conditions: propofol series, individual replicate values
T1 construct: expressed in transfected cells
Procedure, shortened: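 HEK293 cells stably expressing receptor (parental HEK293 alongside) loaded with Calcium 5 dye in HBSS/20 mM HEPES, pH 7.4, 1 h at 37 °C, then compounds added. Response = peak minus pre-drug baseline, triplicates averaged; EC50 from 4PL fit.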

[8] = test system: NP2-WT DRG neurons; test: GCaMP6s calcium imaging of cultured NP2-WT DRG neurons; format: cell-based, mouse; conditions: 10 μM phospho-drugs; 1 mM CQ
Source text: as §1, with “Neurons with FT/F0 > 1.5 after compound application were considered a positive responder. NP2-X4+: NP2-MRGPRX4+; DRG, dorsal root ganglia; CQ: chloroquine.” left out
Calcium imaging data was collected with a Nikon Eclipse TE 200 microscope. Time series GCaMP6 fluorescence intensity was acquired through the FITC/GFP channel. […] Neurons with GCaMP6 signal rose above 50% of the baseline intensity after compound application were counted as positive responders and the percentage of responding neurons was calculated. […]

T1 sequence (Q96LA9 whole entry L83S): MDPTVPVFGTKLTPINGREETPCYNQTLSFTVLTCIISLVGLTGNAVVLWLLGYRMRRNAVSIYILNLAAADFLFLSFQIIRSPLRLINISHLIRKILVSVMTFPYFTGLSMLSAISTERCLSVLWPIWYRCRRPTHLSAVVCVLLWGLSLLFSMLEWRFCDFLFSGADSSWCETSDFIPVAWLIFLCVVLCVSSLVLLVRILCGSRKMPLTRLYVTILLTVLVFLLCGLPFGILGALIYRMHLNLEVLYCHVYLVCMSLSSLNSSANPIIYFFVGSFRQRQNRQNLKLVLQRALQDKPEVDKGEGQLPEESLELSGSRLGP

With `C[C@@H]1C[C@H]2[C@@H]3CCC4=CC(=O)C=C[C@]4(C)[C@@]3(F)[C@@H](O)C[C@]2(C)[C@@]1(O)C(=O)COP(=O)(O)O` [Dexamethasone phosphate] the “Calcium response of NP2-X4+ neurons” value [1] was “strong calcium transients”, the “Scratching bouts of individual animals” value [2] was 19 and 29 and 40 and 22 and 17 and 35 and 2 and 71 and 63 and 41 and the “Scratching bouts (each well represents individual mouse)” value ([3]; 1 mM subcutaneous nape injection) was 5 and 12 and 10 and 47. For the same compound, the “Scratching bouts (each well represents individual mouse)” value ([3]; 10 mM subcutaneous nape injection) was 2 and 30 and 18 and 13, the “Scratching bouts of individual animals” value [4] was 4 and 14 and 5 (2×) and 8 and 3 (2×) and 18 and 12 and 42 and the “PRESTO-Tango response (fig. S1), single replicate” value (“PRESTO-Tango response (fig. S1)” below) ([5]; concentration 4.88e-7 M) was 0.002254 and 0.004793 and 0.008408 and 0.006888 and 0.003935 and 0.001659. For the same compound, the “PRESTO-Tango response (fig. S1)” value ([5]; concentration 9.77e-7 M) was 0.004343 and 0.01198 and 0.02598 and 0.007642 and 0.02244 and 0.00537, the “PRESTO-Tango response (fig. S1)” value ([5]; concentration 1.95e-6 M) was 0.003939 and 0.005577 and 0.007884 and 0.006351 and 0.008709 and 0.001173 and the “PRESTO-Tango response (fig. S1)” value ([5]; concentration 3.91e-6 M) was 0.006644 and 0.008139 and 0.007744 and 0.01012 and 0.008517 and 0.007795. The “PRESTO-Tango response (fig. S1)” value ([5]; concentration 7.81e-6 M) was 0.008709 and 0.01255 and 0.009916 and 0.01429 and 0.003964 and 0.009591, the “PRESTO-Tango response (fig. S1)” value ([5]; concentration 1.56e-5 M) was 0.01013 and 0.0155 and 0.008817 and 0.01021 and 0.0162 and 0.001357 and the “PRESTO-Tango response (fig. S1)” value ([5]; concentration 3.13e-5 M) was 0.01293 and 0.02454 and 0.01076 and 0.01089 and 0.02171 and 0.002693. For the same compound, the “PRESTO-Tango response (fig. S1)” value ([5]; concentration 6.25e-5 M) was 0.01139 and 0.03821 and 0.01576 and 0.0127 and 0.01288 and 0.03538, the “PRESTO-Tango response (fig. S1)” value ([5]; concentration 0.00025 M) was 0.01585 and 0.06272 and 0.01054 and 0.02134 and 0.01844 and 0.04104 and the “PRESTO-Tango response (fig. S1)” value ([5]; concentration 0.0005 M) was 0.01737 and 0.05973 and 0.009456 and 0.02137 and 0.0304 and 0.02084. The “Enhancement of aqueous solubility” value [6] was “more than 500 fold”.

For `CC(C)c1cccc(C(C)C)c1OS(=O)(=O)O` [Propofol sulfate], the “Scratching / itch behavior, NP2-X4+ mice vs WT littermates” value ([2]; 50 μl 10 mM nape injection, 30 min) was “no differences in itch behavior were detected”, the “Scratching bouts of individual animals” value [2] was 4 and 14 (2×) and 2 and 12 (2×) and 11 and 42 and 6 and the “Scratching bouts of individual animals” value [4] was 15 and 0 and 6 and 5 and 3 and 11. The “Fig. 1D dose-response, calcium response at Concentration (M)” value (from here on “Fig. 1D dose-response, calcium response”) ([7]; 9.76563e-7 M) was -9.765 and -0.941 and -3.534 and -7.698 and -0.440 and -6.103 and -0.412 and -8.690 and -5.139, the “Fig. 1D dose-response, calcium response” value ([7]; 1.95313e-6 M) was 6.750 and 16.267 and 9.058 and 9.006 and 15.719 and 7.351 and 7.826 and 16.017 and 8.232 and the “Fig. 1D dose-response, calcium response” value ([7]; 3.90625e-6 M) was 4.213 and 7.941 and 5.294 and 9.099 and 3.195 and 5.153 and 8.684 and 2.706 and 6.058. The “Fig. 1D dose-response, calcium response” value ([7]; 7.8125e-6 M) was -1.463 and -6.718 and -3.371 and -0.821 and -4.964 and -5.766 and -0.353 and -2.243 and -8.955, the “Fig. 1D dose-response, calcium response” value ([7]; 1.5625e-5 M) was -10.261 and -6.059 and -2.116 and -7.312 and -10.479 and -0.646 and -4.250 and -7.396 and -6.790 and the “Fig. 1D dose-response, calcium response” value ([7]; 3.125e-5 M) was -14.578 and -1.085 and -26.180 and -14.763 and -11.464 and -15.617 and -4.490 and -19.590 and -17.764. For the same compound, the “Fig. 1D dose-response, calcium response” value ([7]; 6.25e-5 M) was -6.291 and -44.109 and -11.407 and -17.994 and -28.042 and -15.772 and -23.530 and -32.512 and -5.766, the “Fig. 1D dose-response, calcium response” value ([7]; 0.00025 M) was -9.210 and -19.710 and -18.950 and -19.770 and -23.073 and -5.027 and -19.240 and -15.426 and -13.204 and the “Fig. 1D dose-response, calcium response” value ([7]; 0.0005 M) was -0.269 and -0.640 and -0.169 and -0.708 and -0.172 and -0.198 and -0.248 and -0.541 and -0.289. For the same compound, the “Fig. 1D dose-response, calcium response” value ([7]; 0.001 M) was 6.469 and 6.229 and 2.832 and 5.169 and 2.033 and 8.329 and 8.781 and 6.580 and 0.170.

With `CCN(CC)CCCC(C)Nc1ccnc2cc(Cl)ccc12` (stereo not shown) [Chloroquine] the “Calcium response of NP2-WT neurons” value [8] was “responded” and the “Calcium response of NP2-X4+ neurons” value [1] was “responded”.
